Experiments:
Format in all cases: in vivo
[1] = test system: Alternaria solani; assay: Alternaria solani/Tomato/Preventive (action against Alternaria on tomato); details: 96 h, preventive spray, tomato plants cv. Roter Gnom, assessed 4 days after inoculation, read-out: inhibit fungal infestation
Experimental: (§1) Alternaria solani/Tomato/Preventive (Action Against Alternaria on Tomato) 4 weeks old tomato plants cv. Roter Gnom are treated with the formulated test compound in a spray chamber. Two days after application tomato plants are inoculated by spraying a spore suspension on the test plants. After an incubation period of 4 days at 22° C./18° C. and 95% r. h. in a greenhouse the disease incidence is assessed.

[2] = test system: Pyrenophora teres (Helminthosporium teres); assay: Pyrenophora teres (Helminthosporium teres)/Barley/Preventive (action against net blotch on barley); details: 96 h, preventive spray, barley plants cv. Regina, assessed 4 days after inoculation, read-out: inhibit fungal infestation
Experimental: Pyrenophora teres (Helminthosporium teres)/Barley/Preventive (Action Against Net Blotch on Barley) 1-week-old barley plants cv. Regina are treated with the formulated test compound in a spray chamber. Two days after application barley plants are inoculated by spraying a spore suspension (2.6×10^4 conidia/ml) on the test plants. After an incubation period of 4 days at 20° C. and 95% r. h. the disease incidence is assessed.

[3] = test system: Septoria tritici; assay: Septoria tritici/Wheat/Preventive (action against Septoria leaf spot on wheat); details: Zymoseptoria tritici, preventive spray, wheat plants cv. Riband, assessed 16-18 days after inoculation, read-out: inhibit fungal infestation
Experimental: Septoria tritici/Wheat/Preventive (Action Against Septoria Leaf Spot on Wheat) 2 weeks old wheat plants cv. Riband are treated with the formulated test compound in a spray chamber. One day after application wheat plants are inoculated by spraying a spore suspension (10^6 conidia/ml) on the test plants. After an incubation period of 1 day at 22° C./21° C. and 95% r. h. plants are kept at 22° C./21° C. and 70% r.h. in a greenhouse. The disease incidence is assessed 16-18 days after inoculation.

[4] = test system: Uncinula necator; assay: Uncinula necator/Grape/Preventive (action against powdery mildew on grape); details: Erysiphe necator, 168 h, preventive spray, grape seedlings cv. Gutedel, assessed 7 days after inoculation, read-out: inhibit fungal infestation
Experimental: Uncinula necator/Grape/Preventive (Action Against Powdery Mildew on Grape) 5 weeks old grape seedlings cv. Gutedel are treated with the formulated test compound in a spray chamber. One day after application grape plants are inoculated by shaking plants infected with grape powdery mildew above the test plants. After an incubation period of 7 days at 24° C./22° C. and 70% r. h. under a light regime of 14/10 h (light/dark) the disease incidence is assessed.

[5] = test system: Botrytis cinerea; assay: Botrytis cinerea/Tomato/Preventive (action against Botrytis on tomato); details: 72 h, preventive spray, tomato plants cv. Roter Gnom, assessed 3 days after inoculation, read-out: inhibit fungal infestation
Experimental: as §1, with “Botrytis cinerea/Tomato/Preventive (Action” for “Alternaria solani/Tomato/Preventive (Action”, “Against Botrytis” for “Against Alternaria”, “of 3” for “of 4”, “at 20°” for “at 22° C./18°”

[6] = test system: Puccinia recondita; assay: Puccinia recondita/Wheat/Preventive (action against brown rust on wheat); details: 264 h, preventive spray, wheat plants cv. Arina, assessed 11 days after inoculation, read-out: inhibit fungal infestation
Experimental: Puccinia recondita/Wheat/Preventive (Action Against Brown Rust on Wheat) 1 week old wheat plants cv. Arina are treated with the formulated test compound in a spray chamber. One day after application wheat plants are inoculated by spraying a spore suspension ([…] uredospores/ml) on the test plants. After an incubation period of 1 day at 20° C. and 95% r. h. plants are kept for 10 days 20° C./18° C. (day/night) and 60% r.h. in a greenhouse. The disease incidence is assessed 11 days after inoculation.

[7] = test system: Magnaporthe grisea (Pyricularia oryzae); assay: whole plant or invertebrate; details: 144 h, read-out: inhibit fungal infestation

Measured: inhibition at 200 ppm

Fc1cc(F)c(-c2c(Cl)nc(Cl)n2-c2cnc3ccccc3c2)c(F)c1 [I.j.269, 3-[2,4-dichloro-5-(2,4,6-trifluoro-phenyl)-imidazol-1-yl]-quinoline]
≥ 80%: [1] | [2] | [3] | [4]

COc1cc(F)c(-c2c(Cl)nc(C)n2-c2ccc(OC)nc2)c(F)c1 [I.m.220, 5-[4-Chloro-5-(2,6-difluoro-4-methoxy-phenyl)-2-methyl-imidazol-1-yl]-2-methoxy-pyridine]
≥ 80%: all assays above

COc1cc(F)c(-c2c(Cl)nc(C)n2-c2ccc(C)nc2)c(F)c1 [I.m.225, 5-[4-Chloro-5-(2,6-difluoro-4-methoxy-phenyl)-2-methyl-imidazol-1-yl]-2-methyl-pyridine]
≥ 80%: all assays above

Cc1nc(Cl)c(-c2c(F)cc(F)cc2F)n1-c1cnc2ccccc2c1 [I.j.270, 3-[4-chloro-2-methyl-5-(2,4,6-trifluoro-phenyl)-imidazol-1-yl]-quinoline]
≥ 80%: all assays above

Cc1nc(Cl)c(-c2c(F)cc(F)cc2F)n1-c1ccc(Cl)nc1 [I.j.210, 2-Chloro-5-[4-chloro-2-methyl-5-(2,4,6-trifluoro-phenyl)-imidazol-1-yl]-pyridine]
≥ 80%: all assays above

Cc1ccc(-n2c(C)nc(Cl)c2-c2c(F)cc(F)cc2F)cn1 [I.j.225, 5-[4-Chloro-2-methyl-5-(2,4,6-trifluoro-phenyl)-imidazol-1-yl]-2-methyl-pyridine]
≥ 80%: [1] | [7] | [3] | [4]

Fc1cc(F)c(-c2c(Cl)nc(Cl)n2-c2ccc(Cl)nc2)c(F)c1 [I.j.209, 2-Chloro-5-[2,4-dichloro-5-(2,4,6-trifluoro-phenyl)-imidazol-1-yl]-pyridine]
not listed: [4] | [6]
≥ 80%: all other assays above

COc1cc(F)c(-c2c(Cl)nc(C)n2-c2ccc(Cl)nc2)c(F)c1 [I.m.210, 2-Chloro-5-[4-chloro-5-(2,6-difluoro-4-methoxy-phenyl)-2-methyl-imidazol-1-yl]-pyridine]
≥ 80%: all assays above

Reference: patent publication US20110311649A1, “NOVEL IMIDAZOLE DERIVATIVES” (SYNGENTA CROP PROTECTION, INC., priority 2007, published 2011)
